Experimental data reported in patent US20260315452A1, “PROTEASE INHIBITORS AND USES THEREOF” (priority 2023, published 2026).

Target: SARS-CoV-2 3CLpro (Severe acute respiratory syndrome coronavirus 2, UniProt P0DTD1)
Experiment: biochemical
Conditions: inhibition of SARS-CoV-2 3CLpro; 15 nM 3CLpro, 25 μM fluorogenic substrate, 37° C.; read-out: Inhibitory Activity (IC50)

Row | SMILES | IC50
1 | O=C(N[C@@H]1CCNC1)c1cc(Br)cc(C(F)(F)F)c1N[C@H]1CN(C(=O)c2cncc3ccccc23)CCC1(F)F [Compound 160, 5-bromo-2-[[(3S)-4,4-difluoro-1-(isoquinoline-4-carbonyl)-3-piperidyl]amino]-N-[(3R)-pyrrolidin-3-yl]-3-(trifluoromethyl)benzamide] | < 100 nM
2 | CNC(=O)c1cc(Cl)cc([N+](=O)[O-])c1N[C@H]1CN(C(=O)c2cncc3ccn(C)c23)CC[C@@H]1F [Compound 178, 5-chloro-2-(((3S, 4S)-4-fluoro-1-(1-methyl-1H-pyrrolo[3,2-c]pyridine-7-carbonyl)piperidin-3-yl)amino)-N-methyl-3-nitrobenzamide] | < 100 nM
3 | CNC(=O)c1cc(Br)cc([N+](=O)[O-])c1N[C@@H]1CCCC[C@@H]1NC(=O)c1cncc(CNC(=O)OC(C)(C)C)c1 [Compound 5, tert-butyl ((5-(((1S, 2R)-2-((4-bromo-2-(methylcarbamoyl)-6-nitrophenyl)amino)cyclohexyl)carbamoyl)pyridin-3-yl)methyl)carbamate] | ≥ 10000 nM
4 | CNC(=O)c1cc(Br)cc([N+](=O)[O-])c1NC(C1CC1)C1CN(C(=O)c2cncc3ccccc23)C1 (stereo not drawn) [Compound 58, 5-bromo-2-((cyclopropyl(1-(isoquinoline-4-carbonyl)azetidin-3-yl)methyl)amino)-N-methyl-3-nitrobenzamide] | 100 to 1000 nM
5 | O=C(NC1CC(F)(F)C1)c1cc(Br)cc([N+](=O)[O-])c1N[C@@H]1CCCC[C@@H]1NC(=O)c1cncc2ccccc12 [Compound 56, N-((1S, 2R)-2-((4-bromo-2-((3,3-difluorocyclobutyl)carbamoyl)-6-nitrophenyl)amino)cyclohexyl)isoquinoline-4-carboxamide] | < 100 nM
6 | CNC(=O)c1cc(Br)cc([N+](=O)[O-])c1O[C@@H]1CCCC[C@@H]1NC(=O)c1cncc2ccccc12 [Compound 102, N-[(1S,2R)-2-[4-bromo-2-(methylcarbamoyl)-6-nitro-phenoxy]cyclohexyl]isoquinoline-4-carboxamide] | < 100 nM
7 | NC(=O)c1cc(Br)cc([N+](=O)[O-])c1N[C@H]1CN(C(=O)c2cncc3ccccc23)CCC1(F)F [Compound 49, (S)-5-bromo-2-((4,4-difluoro-1-(isoquinoline-4-carbonyl)piperidin-3-yl)amino)-3-nitrobenzamide] | < 100 nM
8 | O=C(c1cc(Br)cc(C(F)(F)F)c1N[C@H]1CN(C(=O)c2cncc3cccnc23)CCC1(F)F)N1CC(O)C1 [Compound 110, (S)-(5-bromo-2-((4,4-difluoro-1-(1,6-naphthyridine-8-carbonyl)piperidin-3-yl)amino)-3-(trifluoromethyl)phenyl)(3-hydroxyazetidin-1-yl)methanone] | < 100 nM
9 | COC1CN(C(=O)c2cc(Br)cc([N+](=O)[O-])c2N[C@H]2CN(C(=O)c3cncc4ccccc34)CCC2(F)F)C1 [Compound 38, (S)-(5-bromo-2-((4,4-difluoro-1-(isoquinoline-4-carbonyl)piperidin-3-yl)amino)-3-nitrophenyl)(3-methoxyazetidin-1-yl)methanone] | < 100 nM
10 | NNC(=O)c1cc(Br)cc([N+](=O)[O-])c1N[C@@H]1CCCC[C@@H]1NC(=O)c1cncc2ccccc12 [Compound 54, N-((1S,2R)-2-((4-bromo-2-(hydrazinecarbonyl)-6-nitrophenyl)amino)cyclohexyl)isoquinoline-4-carboxamide] | 1000 to 10000 nM
11 | O=C(N[C@H]1CCOC1)c1cc(Br)cc(C(F)(F)F)c1N[C@H]1CN(C(=O)c2cncc3cccnc23)CCC1(F)F [Compound 109, 5-bromo-2-(((S)-4,4-difluoro-1-(1,6-naphthyridine-8-carbonyl)piperidin-3-yl)amino)-N-((S)-tetrahydrofuran-3-y1)-3-(trifluoromethyl)benzamide] | < 100 nM
12 | O=C(NC1CC(F)(F)C1)c1cc(Br)cc([N+](=O)[O-])c1N[C@@H]1COC[C@@H]1NC(=O)c1cncc2ccccc12 [Compound 137, N-((3R,4S)-4-((4-bromo-2-((3,3-difluorocyclobutyl)carbamoyl)-6-nitrophenyl)amino)tetrahydrofuran-3-yl)isoquinoline-4-carboxamide] | 1000 to 10000 nM
13 | CNC(=O)c1cc(Br)cc([N+](=O)[O-])c1N1CC[C@H](CNC(=O)c2cncc3ccccc23)C1 [Compound 25, (R)-N-((1-(4-bromo-2-(methylcarbamoyl)-6-nitrophenyl)pyrrolidin-3-yl)methyl)isoquinoline-4-carboxamide] | 100 to 1000 nM
14 | CNC(=O)c1cc(Br)cc([N+](=O)[O-])c1N1CCC2(CN(C(=O)c3cncc4ccccc34)C2)C1 [Compound 10, 5-bromo-2-(2-(isoquinoline-4-carbonyl)-2,6-diazaspiro[3, 4]octan-6-yl)-N-methyl-3-nitrobenzamide] | ≥ 10000 nM
15 | CNC(=O)c1cc(Br)cc([N+](=O)[O-])c1N[C@H]1CN(C(c2cncc3ccccc23)C(F)(F)F)CCC1(F)F (stereo partly drawn) [Compound 140, 5-bromo-2-(((35)-4,4-difluoro-1-(2,2,2-trifluoro-1-(isoquinolin-4-yl)ethyl)piperidin-3-yl)amino)-N-methyl-3-nitrobenzamide] | ≥ 10000 nM
16 | CNC(=O)c1cc(Cl)cc([N+](=O)[O-])c1N[C@H]1CN(C(=O)c2cncc3ncn(C)c23)CCC1(F)F [Compound 105, (S)-5-chloro-2-((4,4-difluoro-1-(1-methyl-1H-imidazo[4,5-c]pyridine-7-carbonyl)piperidin-3-yl)amino)-N-methyl-3-nitrobenzamide] | < 100 nM
17 | COC1CN(C(=O)c2cc(Cl)cc([N+](=O)[O-])c2N[C@H]2CN(C(=O)c3cncc4cccnc34)CCC2(F)F)C1 [Compound 111, (S)-(5-chloro-2-((4,4-difluoro-1-(1,6-naphthyridine-8-carbonyl)piperidin-3-yl)amino)-3-nitrophenyl)(3-methoxyazetidin-1-yl)methanone] | < 100 nM
18 | CNC(=O)c1cc(Br)cc([N+](=O)[O-])c1N[C@H]1CN(C(=O)c2cncc3cccnc23)CCC1(F)F [Compound 107, (S)-5-bromo-2-((4,4-difluoro-1-(1,6-naphthyridine-8-carbonyl)piperidin-3-yl)amino)-N-methyl-3-nitrobenzamide] | < 100 nM
19 | COC1CN(C(=O)c2cc(Br)cc(C(F)(F)F)c2N[C@H]2CN(C(=O)c3cncc4ccccc34)CCC2(F)F)C1 [Compound 172, (S)-(5-bromo-2-((4,4-difluoro-1-(isoquinoline-4-carbonyl)piperidin-3-yl)amino)-3-(trifluoromethyl)phenyl)(3-methoxyazetidin-1-yl)methanone] | < 100 nM
20 | C[C@@H](NC(=O)c1cc(Br)cc([N+](=O)[O-])c1N[C@@H]1COCC[C@@H]1NC(=O)c1cncc2ccccc12)C(F)(F)F [Compound 136, N-((3S, 4S)-3-((4-bromo-2-nitro-6-(((R)-1,1,1-trifluoropropan-2-yl)carbamoyl)phenyl)amino)tetrahydro-2H-pyran-4-yl)isoquinoline-4-carboxamide] | 100 to 1000 nM
21 | CNC(=O)c1cc(Br)cc([N+](=O)[O-])c1O[C@H]1CN(C(=O)c2cncc3ccccc23)CCC1(F)F [Compound 180, (S)-5-bromo-2-((4,4-difluoro-1-(isoquinoline-4-carbonyl)piperidin-3-yl)oxy)-N-methyl-3-nitrobenzamide] | ≥ 10000 nM
